Measured values reported in patent US12227500B2, “Substituted pyrrolo[2,3-b]pyridines for suppressing toxic endoplasmic reticulum stress” (THE TRUSTEES OF COLUMBIA UNIVERSITY IN THE CITY OF NEW YORK, priority 2018, dated 2025).
Read-outs that look alike come from different tables or passages of the source.

Tests used:
[1] = system: HB9::GFP-SOD1^+/A4V human motor neurons; assay: Rescue of CPA toxicity in human ESC-derived motor neurons, SOD1^+/A4V; format: cell-based
From the text: (§1) One advantage of the stem cell-derived motor neuron survival assay is that it can be easily extended to human motor neurons. To adapt the assay to human cells, we generated a new isogenic pair of ESC lines derived from a human ESC line expressing GFP under the control of the Hb9 motor neuron promoter (HUES3 HB9::GFP, (Di Giorgio et al. 2008)). […] . The pair of cell lines was differentiated into motor neurons in parallel using previously published protocols (Amoroso et al. 2013; […] .
(§2) Differentiation of human isogenic HUES3 ESC HB9::GFP reporter lines into motor neurons was performed as previously described (Maury et al. 2015). Cells were dissociated on day 16 of differentiation, FACS-sorted and plated on poly-ornithine- and laminin-coated surfaces as above. Serum-free human motor neuron plating media was supplemented with the antimitotic UFdU and the neurotrophic factors GDNF, BDNF, CNTF, and IGF1 (all at 10 ng/mL) as described (Johnson-Kerner et al. 2015).

[2] = system: ESC-derived spinal motor neurons and interneurons; assay: Toxicity of ER stressors in mouse ESC-derived spinal neuron cultures; format: cell-based; settings: for sensitivity of spinal motor neurons vs dorsal interneurons: co-cultures, increasing concentrations
From the text: One of the selective stressors that we identified was cyclopiazonic acid (CPA), a mycotoxin that reversibly blocks the sarcoendoplasmic reticulum-associated calcium ATPse (SERCA). SERCA is responsible for sequestering calcium from the cytoplasm into the endoplasmic reticulum (ER) (Goeger et al. 1988). SERCA inhibition lowers calcium concentration in the ER, leading to dysfunction of protein folding, activation of the unfolded protein response, ER stress, and apoptosis (Doutheil et al. 1997). […]. For all subsequent experiments, unless stated otherwise, motor neurons were treated with 7.5 μM CPA.
[…]. […] […].
For this analysis, we generated a new ESC line that expresses tdTomato in dI4 and dIL dorsal spinal inhibitory interneurons derived from Ptf1α-expressing progenitors (Hoang et al. 2017, unpublished data). We differentiated this line under conditions that promote the specification of dorsal interneuron identity. FACS-purified tdTomato-expressing interneurons were co-cultured with FACS-purified GFP-expressing spinal motor neurons (FIG. 16E and FIG. 16G).
To strengthen the link between the activation of ER stress and motor neuron degeneration, we extended our study to include two additional compounds that activate ER stress: thapsigargin, a drug that acts similarly to CPA by inhibiting SERCA pumps, but is irreversible (Lytton et al. 1991), and tunicamycin, a drug that triggers ER stress in a calcium-independent manner by inhibiting protein N-glycosylation in the ER (Oslowski et al. 2011). […] Thus, the motor neuron-toxic effects of CPA are likely related to its activation of ER stress pathways and not to its effects on calcium levels or other off-target effects (FIG. 16G).

[3] = system: HB9::GFP-SOD1^+/+ human motor neurons; assay: Rescue of CPA toxicity in human ESC-derived motor neurons, SOD1^+/+; format: cell-based; settings: 33 μM CPA; for rescue of CPA-induced cell death: WT motor neurons
From the text: as §1, §2

[4] = system: human stem cell-derived motor neurons derived from a healthy patient; assay: CPA survival assay, wild-type human stem cell-derived motor neurons; settings: for motor neuron survival restored, % of vehicle controls (maximum): CPA 33 μM, at 1.2 μM (PF-6260933), 2.4 μM (GNE-495), 0.6 μM (URMC-099)
[5] = system: hSOD1^G93A motor neurons; assay: RT-PCR of stress-associated genes after CPA treatment; format: cell-based, mouse
Protocol: . We observed a rapid increase in the expression of Bip and the key downstream effector Chop (Ddit3). Bip was increased 2-fold after 1 hour of CPA exposure, and continued to increase to approximately 5-fold by 8 hours. […] Other genes with >2-fold induction included: p58/PK 255 (6.5 fold at 8 hours), an ER-stress-induced protein kinase; Growth arrest and DNA-damage inducible protein 45 alpha (Gadd45a; […]; Erdj4, a Bip cofactor with involvement in ER associated protein degradation (ERAD) (5-fold at 4-8 hours); Atf4, a downstream mediator of the PERK-axis of the UPR (3-fold at 8 hours); […]; and Nrf2, a PERK substrate (2 fold at 8 hours). Altogether, these expression changes pointed to strong activation of multiple axes of the unfolded protein response (UPR) in motor neurons exposed to CPA (FIG. 19F).
Samples were lysed in TRIzol and frozen at −80° C. until further processing. RNA was extracted using the Qiashredder and Qiagen RNeasy Mini kits (Qiagen) according to the manufacturer's protocol. 1-2 μg total RNA was used for each reverse transcription reaction, and reactions were performed using the TaqMan RT kit (Applied Biosystems, Grand Island, NY, USA). Primer pairs were designed for target transcripts using Primer Express 3.0 (Applied Biosystems). Quantitative PCR reactions were performed using the Power SYBR Green PCR Master Mix (Applied Biosystems). Reactions were run and analyzed on a ViiA 7 (Life Technologies) qPCR instrument using absolute quantification settings.

[6] = system: human ES motor neurons; assay: Rescue of CPA toxicity by kinase inhibitors in dilution series (FIG. 3); settings: for rescue of CPA toxicity: dilution series, FIG. 3
[7] = target: T1, HGK/MAP4K4 (Homo sapiens, UniProt O95819); settings: Ammirati et al. 2015; Ndubaku et al. 2015; cited from earlier work
Target sequence in this assay (O95819 whole entry, species assumed): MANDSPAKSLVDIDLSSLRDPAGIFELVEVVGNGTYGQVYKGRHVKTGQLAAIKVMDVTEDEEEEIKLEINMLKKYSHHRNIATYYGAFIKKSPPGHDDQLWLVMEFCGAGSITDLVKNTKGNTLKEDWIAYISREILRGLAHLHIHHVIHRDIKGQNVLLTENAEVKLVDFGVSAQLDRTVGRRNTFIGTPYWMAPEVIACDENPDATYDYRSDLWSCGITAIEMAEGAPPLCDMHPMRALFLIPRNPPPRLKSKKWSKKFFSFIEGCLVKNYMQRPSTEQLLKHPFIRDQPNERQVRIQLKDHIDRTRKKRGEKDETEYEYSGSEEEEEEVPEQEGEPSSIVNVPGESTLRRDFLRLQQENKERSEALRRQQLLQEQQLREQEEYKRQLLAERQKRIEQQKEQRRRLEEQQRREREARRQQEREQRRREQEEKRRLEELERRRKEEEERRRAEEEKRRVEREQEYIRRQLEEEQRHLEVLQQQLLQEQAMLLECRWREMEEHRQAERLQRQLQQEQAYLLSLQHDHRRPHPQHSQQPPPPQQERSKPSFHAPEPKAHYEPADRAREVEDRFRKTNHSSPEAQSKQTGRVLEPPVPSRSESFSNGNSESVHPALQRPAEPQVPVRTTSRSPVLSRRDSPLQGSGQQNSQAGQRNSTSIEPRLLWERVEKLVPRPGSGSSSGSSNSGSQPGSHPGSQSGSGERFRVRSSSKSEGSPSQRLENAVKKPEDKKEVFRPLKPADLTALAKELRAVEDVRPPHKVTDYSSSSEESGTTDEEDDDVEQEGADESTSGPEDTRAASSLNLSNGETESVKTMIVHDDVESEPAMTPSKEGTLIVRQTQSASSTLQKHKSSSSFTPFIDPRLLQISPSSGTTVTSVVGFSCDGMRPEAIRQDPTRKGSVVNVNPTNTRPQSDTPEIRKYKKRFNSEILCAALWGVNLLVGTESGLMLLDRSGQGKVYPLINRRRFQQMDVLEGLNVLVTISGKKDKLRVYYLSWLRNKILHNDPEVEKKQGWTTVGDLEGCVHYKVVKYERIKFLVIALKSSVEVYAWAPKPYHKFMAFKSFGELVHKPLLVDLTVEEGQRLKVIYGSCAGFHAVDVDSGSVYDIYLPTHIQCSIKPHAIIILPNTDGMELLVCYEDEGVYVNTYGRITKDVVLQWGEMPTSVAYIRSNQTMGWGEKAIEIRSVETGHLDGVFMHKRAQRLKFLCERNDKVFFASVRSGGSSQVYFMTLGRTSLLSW

[8] = target: NUAK1 (Homo sapiens, UniProt O60285); settings: 0.5 μM inhibitor; Anastassiadis et al. 2011; cited from earlier work
[9] = system: N9 microglial cells; assay: TNFα release by LPS-stimulated microglia (ELISA); format: cell-based, mouse; settings: LPS 0.1-5 μM; 24 h
Protocol: To model microglial activation in vitro, we stimulated mouse N9 microglial cells with increasing concentrations of E. coli-derived lipopolysaccharides (LPS) (0.1-5 μM) to measure release of the pro-inflammatory cytokine TNFα into cell culture media.
Cultures were maintained in DMEM containing FBS (10%, Life Technologies) and Glutamax (1%, Life Technologies). […] N9 cells remaining in the culture dishes were treated with AlamarBlue (Thermo Fisher) to assess viability. 5 μL AlamarBlue was added to each well (containing 50 μL culture media) and incubated for 4 h at 37°.

[10] = target: T2, MLK3/MAP3K11 (Homo sapiens, UniProt Q16584); assay: Radiolabeled ATP kinase assay (Reaction Biology Corp.), MLK3; format: biochemical; settings: 0.1 μM
T2 construct: purchased Reaction Biology Corp
Protocol: (§3) Meanwhile, the same analogs were analyzed in a radiolabeled ATP assay (10 μM ATP; Reaction Biology Corp.) to compare the extent to which they could inhibit the activity of HGK, MLK1, or MLK3 in a cell-free environment (Table S3 and S4).

[11] = system: human ES motor neurons carrying the ALS-causing SOD1^A4V mutation; assay: cells; format: cell-based; settings: 72 h
Protocol: Next, survival assays were performed with all the analogs at once to generate a low-variability dataset. All compounds were evaluated at concentrations ranging from 0.1-3.0 μM (five-point dilution) in three technical replicates and two biological replicates.

[12] = target: T1, HGK/MAP4K4; assay: Radiolabeled ATP kinase assay (Reaction Biology Corp.), HGK; format: biochemical; design: purchased Reaction Biology Corp; settings: 10 μM ATP, read-out: % Enzyme Activity (relative to DMSO controls), HGK/MAP4K4, Data 1
Protocol: as §3
Target sequence in this assay (O95819 whole entry): as the sequence (O95819 whole entry, species assumed) above

T2 sequence (Q16584 whole entry): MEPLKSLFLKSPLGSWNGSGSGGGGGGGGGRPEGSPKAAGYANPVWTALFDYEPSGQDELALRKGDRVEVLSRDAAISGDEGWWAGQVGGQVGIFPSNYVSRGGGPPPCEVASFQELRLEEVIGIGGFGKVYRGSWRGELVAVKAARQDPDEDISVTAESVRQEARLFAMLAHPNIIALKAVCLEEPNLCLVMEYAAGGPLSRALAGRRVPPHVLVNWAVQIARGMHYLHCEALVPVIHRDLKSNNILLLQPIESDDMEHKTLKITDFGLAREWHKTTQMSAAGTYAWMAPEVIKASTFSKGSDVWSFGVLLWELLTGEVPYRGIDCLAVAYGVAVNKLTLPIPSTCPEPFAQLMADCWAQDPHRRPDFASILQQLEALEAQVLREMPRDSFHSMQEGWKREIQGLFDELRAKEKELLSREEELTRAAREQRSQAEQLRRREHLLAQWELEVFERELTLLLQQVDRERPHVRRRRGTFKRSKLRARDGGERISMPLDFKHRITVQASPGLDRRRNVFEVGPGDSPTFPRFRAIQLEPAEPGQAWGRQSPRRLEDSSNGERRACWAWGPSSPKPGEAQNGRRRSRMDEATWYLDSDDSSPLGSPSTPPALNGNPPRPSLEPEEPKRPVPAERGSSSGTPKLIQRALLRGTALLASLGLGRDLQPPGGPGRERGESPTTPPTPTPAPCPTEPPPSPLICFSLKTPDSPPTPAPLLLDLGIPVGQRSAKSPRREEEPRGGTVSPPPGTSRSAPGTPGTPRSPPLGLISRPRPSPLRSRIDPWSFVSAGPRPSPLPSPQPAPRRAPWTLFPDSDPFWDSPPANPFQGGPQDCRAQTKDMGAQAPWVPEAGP
NUAK1, sequence (O60285 whole entry, species assumed): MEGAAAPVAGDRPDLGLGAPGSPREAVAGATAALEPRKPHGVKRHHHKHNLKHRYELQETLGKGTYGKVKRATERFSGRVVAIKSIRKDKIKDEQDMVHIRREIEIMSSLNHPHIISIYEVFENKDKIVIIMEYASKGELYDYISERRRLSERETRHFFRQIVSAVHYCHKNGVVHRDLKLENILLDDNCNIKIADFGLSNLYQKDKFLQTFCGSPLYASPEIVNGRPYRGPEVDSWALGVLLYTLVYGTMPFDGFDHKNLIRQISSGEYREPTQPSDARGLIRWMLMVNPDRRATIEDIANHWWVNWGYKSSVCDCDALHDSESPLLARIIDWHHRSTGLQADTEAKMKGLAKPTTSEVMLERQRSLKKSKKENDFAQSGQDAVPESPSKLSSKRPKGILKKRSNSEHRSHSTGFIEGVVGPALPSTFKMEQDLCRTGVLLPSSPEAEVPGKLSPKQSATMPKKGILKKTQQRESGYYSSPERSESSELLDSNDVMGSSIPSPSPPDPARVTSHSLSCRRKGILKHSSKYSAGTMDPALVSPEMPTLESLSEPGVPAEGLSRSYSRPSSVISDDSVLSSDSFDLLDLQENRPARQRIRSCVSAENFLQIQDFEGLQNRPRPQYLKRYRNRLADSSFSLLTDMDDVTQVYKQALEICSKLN

Molecule: CC(=O)C1=C(O)[C@@H]2[C@H]3c4c[nH]c5cccc(c45)C[C@H]3C(C)(C)N2C1=O [CPA, cyclopiazonic acid]
- loss of motor neurons ([1]; 33 μM CPA): ~86%
- effective concentration range at which mutant motor neurons exhibit reduced survival compared to control [2]: 6.25 to 12.5 µM
- reduction of survival of GFP− Tuj-1+ non-motor neurons [2]: ~23%
- reduction of survival of motor neurons (GFP+, Tuj1+) [2]: ~71%
- reduction of co-cultured spinal motor neuron survival ([2]; FACS-purified co-culture, CPA): ~70%
- reduction of dorsal spinal interneuron survival ([2]; FACS-purified co-culture, CPA): ~17%
- loss of motor neurons [3]: ~71%
- motor neuron survival, % of controls treated with vehicle alone ([4]; CPA 33 μM for 72h, alone): ~40%
- Erdj4 induction ([5]; 4-8 hours): 5 fold
- Chop induction ([5]; 4 and 8 hours): 16 fold
- Chop induction ([5]; 1 hour): 4 fold
- Bip expression increase ([5]; 1 hour of CPA exposure): 2 fold
- Gadd45a induction ([5]; 4 hours): 5 fold
- Atf4 induction ([5]; 8 hours): 3 fold
- Bip expression increase ([5]; 8 hours): approximately 5 fold
- Calreticulin induction ([5]; 8 hours): 3 fold
- Nrf2 induction ([5]; 8 hours): 2 fold
- p58/PK induction ([5]; 8 hours): 6.5 fold

Molecule: C/C=C(/C)C(=O)O[C@H]1C(C)=C2[C@H]([C@@H]1OC(=O)CCCCCCC)[C@@](C)(OC(C)=O)C[C@H](OC(=O)CCC)[C@@]1(O)[C@H]2OC(=O)[C@@]1(C)O [thapsigargin]
- sensitivity of spinal motor neurons vs dorsal interneurons [2]: selectively sensitive

Molecule: Cn1c2ccccc2c2c3c(c4c5ccccc5n(CCC#N)c4c21)CNC3=O [Go 6976]
- rescue of CPA-induced cell death ([1]; SOD1^A4V motor neurons, 33 μM CPA): 34%
- rescue of CPA-induced cell death [3]: 45%

Molecule: tunicamycin
- sensitivity of spinal motor neurons vs dorsal interneurons [2]: selectively sensitive

Molecule: CCC(=O)Nc1cccc(Oc2nc(Nc3ccc(N4CCN(C)CC4)cc3OC)ncc2Cl)c1 [WZ4003]
- rescue of CPA toxicity ([4]; 8-point dilution series): unable to rescue CPA toxicity
- concentration that potentiated CPA-induced neurodegeneration and was toxic without CPA [6]: ≥ 1000 nM
- rescue of CPA toxicity [6]: unable to rescue CPA toxicity

Molecule: COC(=O)[C@@]1(O)C[C@H]2O[C@]1(C)n1c3ccccc3c3c4c(c5c6ccccc6n2c5c31)C(=O)NC4 [Compound K-252a]
- rescue of CPA-induced cell death [1]: 100%
- rescue of CPA-induced cell death [3]: 56%

Molecule: Nc1ccc(-c2cnc(N)c(-c3ccc(Cl)cc3)c2)cn1 [PF-6260933]
- IC50 [7]: 3.7 nM
- motor neuron survival restored, % of vehicle controls (maximum) [4]: 63%
- rescue of CPA toxicity [6]: protected against CPA toxicity in a dose-dependent manner

Molecule: CN(C)S(=O)(=O)c1ccc2c(c1)/C(=C/c1cc3c([nH]1)CCCC3)C(=O)N2 [SU6656]
- NUAK1 activity remaining [8]: 10.9%
- rescue of CPA toxicity [6]: failed to rescue CPA toxicity

Molecule: CN1CC2CCC(C1)N2Cc1ccc(-c2cnc3[nH]cc(-c4cccc5[nH]ncc45)c3c2)cc1 [Compound 12e, 4-(5-(4-((3-Methyl-3,8-diazabicyclo[3.2.1]octan-8-yl)methyl)phenyl)-1H-pyrrolo[2,3-b]pyridin-3-yl)-1H-indazole]
- TNFα secretion in LPS-stimulated microglia [9]: did not significantly decrease TNFα levels
- remaining activity at 0.1 µM [10]: 71.8%
- EC50 ([11]; CPA 33 μM): Amibiguous
- viability at 1 µM ([11]; Homo sapiens, Neuron, CPA (33 μM) + compound (1 μM), read-out: Motor Neuron Survival, % untreated): 106%
- Emax ([11]; Homo sapiens, Neuron, CPA 33 μM, read-out: Emax (MN survival % untreated)): 144%
- remaining activity at 0.025 µM ([12]; [Cmpd] 0.025 μM): 2.73%
- remaining activity at 0.1 µM ([12]; [Cmpd] 0.1 μM): 0.99%

Molecule: Nc1ncc(C(=O)NC2CN(C(=O)C3CC3)C2)c2ccc(-c3cccc(F)c3)nc12 [GNE-495]
- IC50 [7]: 3.7 nM
- motor neuron survival restored, % of vehicle controls (maximum) [4]: 73%
- rescue of CPA toxicity [6]: similarly neuroprotective
